Values quoted from earlier work as cited in patent US5096924A, “Anticancer antibiotic MI43-37F11 substance” (501 Azidan Hojin Biseibutsu Kagaku Kenkyu Kai, priority 1989, dated 1992).

System: cyclic adenosine monophosphate (CAMP) phosphodiesterase
Settings: disclosed in Japanese Kokai No. 71076/78; cited from earlier work

COc1cc2cc(CO)oc(=O)c2c(O)c1OC [3-hydroxymethyl-6,7-dimethoxy-8-hydroxyisocumarin]
inhibitory activity to cyclic adenosine monophosphate (CAMP) phosphodiesterase: inhibitory activity

COc1c(O)cc2cc(CO)oc(=O)c2c1O [3-hydroxymethyl-6,8-dihydroxy-7-methoxyisocumarin]
inhibitory activity to cyclic adenosine monophosphate (CAMP) phosphodiesterase: inhibitory activity
